Test results taken from patent US20060135458A1, “Antiviral oligonucleotides” (priority 2002, published 2006).
In the oligonucleotide strings, read from the 5' end, every base follows the letter of its sugar. An asterisk marks phosphorothioate; unmarked linkages are phosphodiester. Other units and linkages are bracketed, terminal groups are in braces. A string of capitals states the bases alone. d = 2'-deoxy (DNA)

Columns and labels:
Influenza A/HK/68 (H3N2) = tested on: Influenza A/HK/68 (H3N2); set-up: species or system Balb/c mice; settings: mouse, in vivo, ip, 180 mg/kg
[1] = tested on: HSV-1 (strain MacIntyre) lysate; assay: Fluorescence polarization binding to HSV-1 lysate; settings: FITC-labelled ON
HIV-1 (strain Mn) lysate = assay: Fluorescence polarization binding to HIV-1 lysate; settings: FITC-labelled ON
RSV (strain A2) lysate = assay: Fluorescence polarization binding to RSV lysate; settings: FITC-labelled ON
HSV-2 (strain MS2) = assay: HSV-2 plaque reduction assay (PRA); assay type: cell-based
Method: The ability of PS-ONs to inhibit HSV-2 is measured by PRA. […] Upon reaching confluency, the media is changed to contain only 5% serum plus supplements as described above and cells are then exposed to HSV-2 (strain MS2, approximately 40-60 PFU total) in the presence of the test compound for 90 minutes. After viral exposure, the media is replaced with new “overlay” media containing 5% serum, 1% human immunoglobulins, supplements as described above and the test compound. Plaque counting is performed 3-4 days post infection following formalin fixation and cresyl violet staining of infected cultures.
(§1) Viral adsorbtion proceeds for 90 minutes, after which cells are washed and replaced with new “overlay” media containing 5% fetal calf serum and 1% human immunoglobins. Three to four days after adsorbtion, cells are fixed by formalin and plaques are counted following formalin fixation and cresyl violet staining.

HSV-1 (strain KOS) = assay: HSV-1 plaque reduction assay (PRA) in VERO cells; assay type: cell-based; settings: for IC50: VERO cells, HSV-1 strain KOS, linear regressions, read-out: IC50 (anti-HSV-1)
Method: The ability of PS-ONs to inhibit HSV-1 is measured in a plaque reduction assay (PRA). […] Upon reaching confluency, the media is changed to contain only 5% serum plus supplements as described above and cells are then exposed to HSV-1 (strain KOS, approximately 40-60 PFU total) in the presence of the test compound for 90 minutes. After viral exposure, the media is replaced with new “overlay” media containing 5% serum, 1% human immunoglobulins, supplements as described above and the test compound. Plaque counting is performed 3-4 days post infection following formalin fixation and cresyl violet staining of infected cultures.
as §1
Upon reaching confluency, the media is changed to contain only 5% serum plus supplements as described above and cells are then exposed to HSV-1 (strain KOS, approximately 40-60 PFU total) in the presence of the test compound for 90 minutes. After viral exposure, the media is replaced with new “overlay” media containing 5% serum, 1% human immunoglobulins, supplements as described above and the test compound. Plaque counting is performed 3-4 days post infection following formalin fixation and cresyl violet staining of infected cultures.

[2] = set-up: Acid stability, pH 5 / Acid stability, pH 7: key to the marks not given beside the values
S1 Nuclease = S1 Nuclease (Aspergillus oryzae, UniProt P24021); settings: after 4 h at 37° C.
Phosphodiesterase II = settings: after 4 h at 37° C.
Exonuclease I = Exonuclease I (Escherichia coli, UniProt P04995); set-up: key to the marks not given beside the values; settings: after 4 h at 37° C.
Chain of Exonuclease I (P04995 whole entry): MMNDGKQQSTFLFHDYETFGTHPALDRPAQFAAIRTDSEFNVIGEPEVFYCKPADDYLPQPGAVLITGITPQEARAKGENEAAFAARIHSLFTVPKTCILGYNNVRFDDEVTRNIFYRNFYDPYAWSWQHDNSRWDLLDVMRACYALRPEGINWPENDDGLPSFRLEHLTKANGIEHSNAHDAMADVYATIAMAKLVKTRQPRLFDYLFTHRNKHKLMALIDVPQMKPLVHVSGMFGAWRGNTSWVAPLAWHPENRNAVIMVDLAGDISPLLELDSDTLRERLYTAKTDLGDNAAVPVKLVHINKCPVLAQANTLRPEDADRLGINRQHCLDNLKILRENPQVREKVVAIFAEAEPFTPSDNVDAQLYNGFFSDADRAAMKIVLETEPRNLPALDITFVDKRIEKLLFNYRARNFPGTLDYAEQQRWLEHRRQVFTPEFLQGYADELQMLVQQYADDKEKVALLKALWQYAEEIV

Chain of S1 Nuclease (P24021 21-287): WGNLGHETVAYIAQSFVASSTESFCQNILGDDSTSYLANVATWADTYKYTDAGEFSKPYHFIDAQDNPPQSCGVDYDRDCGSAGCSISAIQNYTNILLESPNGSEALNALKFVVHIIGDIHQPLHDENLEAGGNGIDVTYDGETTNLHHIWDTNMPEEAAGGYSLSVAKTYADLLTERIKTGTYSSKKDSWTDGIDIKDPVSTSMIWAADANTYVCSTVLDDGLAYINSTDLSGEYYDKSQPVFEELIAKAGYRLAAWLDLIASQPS

| Molecule | binding to HSV-1 lysate (fluorescence polarization, mP) [1] | binding to HIV-1 lysate (fluorescence polarization, mP) (HIV-1 (strain Mn) lysate) | binding to RSV lysate (fluorescence polarization, mP) (RSV (strain A2) lysate) | anti-HSV-2 activity (HSV-2 (strain MS2)) | IC50 (HSV-1 (strain KOS)) [nM] | other results |
| --- | --- | --- | --- | --- | --- | --- |
| NC(=O)c1ncn([C@@H]2O[C@H](CO)[C@@H](O)[C@H]2O)n1 [Ribavirin] |  |  |  |  |  | Viral titer (log10/g lung) Mean (Influenza A/HK/68 (H3N2)): 3.3 log10/g lung |
| A20: 20-mer PS-ON, polyA, 3′ FITC labelled in the binding test | the weakest interactor of these by a significant margin | the weakest interactor of these by a significant margin | the weakest interactor of these by a significant margin |  |  |  |
| REP 1001: PS-ON directed against a replication origin in humans (343 ARS) (DNA dT*dT*dG*dA*dT*dA*dA*dA*dT*dA*dG*dT*dA*dC*dT*dA*dG*dG*dA*dC) |  |  |  | showed anti-HSV-2 activity | 2760 |  |
| REP 2001: PS-ON directed against the origin of replication in HSV (DNA dG*dA*dA*dG*dC*dG*dT*dT*dC*dG*dC*dA*dC*dT*dT*dC*dG*dT*dC*dC*dC*dA) |  |  |  | showed anti-HSV-2 activity | 770 |  |
| REP 2017: random sequence 20-mer PS-ON (DNA dA*dC*dA*dC*dC*dT*dC*dC*dG*dA*dA*dG*dA*dC*dG*dA*dT*dA*dA*dC) | capable of HSV-1 and HIV-1 interaction | capable of HSV-1 and HIV-1 interaction |  |  |  |  |
| REP 2029: A40 (polyA) PS-ON (DNA dA*dA*dA*dA*dA*dA*dA*dA*dA*dA*dA*dA*dA*dA*dA*dA*dA*dA*dA*dA*dA*dA*dA*dA*dA*dA*dA*dA*dA*dA*dA*dA*dA*dA*dA*dA*dA*dA*dA*dA) |  |  |  |  |  | Acid stability, pH 1 ([2]; pH 1, 24 h at 37° C.): −; Acid stability, pH 2 ([2]; pH 2, 24 h at 37° C.): −; Acid stability, pH 2.5 ([2]; pH 2.5, 24 h at 37° C.): −; Acid stability, pH 3 ([2]; pH 3, 24 h at 37° C.): −; Acid stability, pH 4 ([2]; pH 4, 24 h at 37° C.): ++ (++ = less than 5-% degradation); Acid stability, pH 5 ([2]; pH 5, 24 h at 37° C.): +++; Acid stability, pH 7 ([2]; pH 7, 24 h at 37° C.): +++; Nuclease resistance, S1 (S1 Nuclease): −; relative anti-HSV-1 efficacy by sequence composition (HSV-1 (strain KOS); PS-ONs of equivalent size, HSV-1 PRA): the least active; Nuclease resistance, PII (Phosphodiesterase II): −; Nuclease resistance, Exo 1 (Exonuclease I): ++++ |
| REP 3007: PS-ON directed against a plasmid (pBR322/pUC) replication origin (DNA dC*dT*dT*dG*dC*dG*dG*dT*dA*dT*dT*dC*dG*dG*dA*dA) |  |  |  | showed anti-HSV-2 activity | 5330 |  |
| T20: 20-mer PS-ON, polyT | the weakest interactors | the weakest interactors | the weakest interactors |  |  |  |
| TG10: 20-mer PS-ON, TG repeat | the strongest interaction | the strongest interaction | the strongest interaction |  |  |  |
